In brackets after ≈: the same amount, converted by molar mass.
Tests used:
Test in all cases: Antifungal activity (MIC), US NCCLS Standard Method M27-A, yeasts
Type in all cases: cell-based
[1] = system: Candida glabrata; conditions: for MIC: Nakaseomyces glabratus, read-out: MIC (minimal inhibitory concentration for growth)
Experimental: (§1) The antifungal activity of the compound of the invention was determined according to the US NCCLS Standard Method (M27-A, 1997) against yeasts (Candida, Cryptococcus); and according to the US NCCLS Standard Method (M38-P, 1998) against molds (Aspergillus). The result is expressed in values of MIC (minimal inhibitory concentration for growth, μg/ml) in Table 7.

[2] = system: Candida krusei; conditions: for MIC: Pichia kudriavzevii, read-out: MIC (minimal inhibitory concentration for growth)
Experimental: as §1

[3] = system: Saccharomyces cerevisiae; conditions: for MIC: read-out: MIC (minimal inhibitory concentration for growth)
Experimental: as §1

Structure (SMILES): CCc1c(C)c(C#N)c2nc3ccccc3n2c1NCCN(CC)CC [Example 1, 1-(2-N′,N′-Diethylaminoethylamino)-2-ethyl-3-methylpyrido[1,2-a]benzimidazole-4-carbonitrile]
- MIC (minimal inhibitory concentration for growth) [1]: 2 µg/mL
- MIC (minimal inhibitory concentration for growth) [2]: 8 µg/mL
- MIC (minimal inhibitory concentration for growth) [3]: 16 µg/mL

Structure (SMILES): Cc1c(-c2ccccc2)c(N2CC[C@H](N(C)C)C2)n2c(nc3ccccc32)c1C#N.O=CO [Example 6]
- MIC (minimal inhibitory concentration for growth) [1]: <0.063 µg/mL
- MIC (minimal inhibitory concentration for growth) [2]: 0.5 µg/mL
- MIC (minimal inhibitory concentration for growth) [3]: <0.063 µg/mL

Structure (SMILES): CCCCCCc1c(C)c(C#N)c2nc3ccccc3n2c1N1CC(CN(C)C)C1 [Example 11, 2-n-Hexyl-1-[3-(dimethylaminomethyl)azetidin-1-yl]-3-methylpyrido[1,2-a]benzimidazole-4-carbonitrile]
- MIC [1]: 16 µg/mL (≈ 39.6 µM)
- MIC [2]: 32 µg/mL (≈ 79.3 µM)
- MIC [3]: 2 µg/mL (≈ 4.96 µM)

Structure (SMILES): CCCCCCc1c(C)c(C#N)c2nc3ccccc3n2c1N1CCCN(C)CC1 [Example 12, 2-n-Hexyl-1-(4-methylhomopiperazin-1-yl)-3-methylpyrido[1,2-a]benzimidazole-4-carbonitrile]
- MIC [1]: 128 µg/mL (≈ 317 µM)
- MIC [2]: > 128 µg/mL
- MIC [3]: > 32 µg/mL

Structure (SMILES): Cc1c(Cc2cccc(N)c2)c(N2CC[C@H](N(C)C)C2)n2c(nc3ccccc32)c1C#N [Example 60, 2-(3-Aminobenzyl)-1-[(3S)-dimethylaminopyrrolidinyl]-3-methylpyrido[1,2-a]benzimidazole-4-carbonitrile]
- MIC (minimal inhibitory concentration for growth) [1]: 16 µg/mL
- MIC (minimal inhibitory concentration for growth) [2]: >128 µg/mL
- MIC (minimal inhibitory concentration for growth) [3]: 64 µg/mL

Structure (SMILES): Cc1c(CCO)c(N2CC[C@H](N(C)C)C2)n2c(nc3ccccc32)c1C#N [Example 66, 1-[(3S)-dimethylaminopyrrolidin-1-yl]-2-(2-hydroxyethyl)-3-methylpyrido[1,2-a]benzimidazole-4-carbonitrile]
- MIC (minimal inhibitory concentration for growth) [1]: 32 µg/mL
- MIC (minimal inhibitory concentration for growth) [2]: 16 µg/mL
- MIC (minimal inhibitory concentration for growth) [3]: 16 µg/mL

Structure (SMILES): Cc1c(C(C)C)c(N2CC[C@H](N(C)C)C2)n2c(nc3ccccc32)c1C#N [Example 87, 2-Isopropyl-1-[(3S)-dimethylaminopyrrolidin-1-yl]-3-methylpyrido[1,2-a]benzimidazole-4-carbonitrile]
- MIC (minimal inhibitory concentration for growth) [1]: 1 µg/mL
- MIC (minimal inhibitory concentration for growth) [2]: 8 µg/mL
- MIC (minimal inhibitory concentration for growth) [3]: 2 µg/mL

Structure (SMILES): CCc1c(C)c(C#N)c2nc3ccccc3n2c1C1=CC(N)CC1 (stereo not drawn) [Example 95, 1-(3-Amino-1-cyclopenten-1-yl)-2-ethyl-3-methylpyrido[1,2-a]benzimidazole-4-carbonitrile]
- MIC [1]: 32 µg/mL (≈ 101 µM)
- MIC [2]: 64 µg/mL (≈ 202 µM)
- MIC [3]: 16 µg/mL (≈ 50.6 µM)

Source: patent US20050113397A1, “Imidazo[1,2-a]pyridine derivative” (priority 2002, published 2005)
